According to PubChem BioAssay AID812 (SRMLSC, 2007):
Calls of active or inactive are those of the source. No rule for the calls is given here.

tested on: Saccharomyces cerevisiae lifespan extension, no nicotinamide; assay: yeast lifespan extension without nicotinamide, confirmation, yeast lifespan extension project, S. cerevisiae (AID 812);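 also: growth read as optical density after 42 hours of incubation at 30C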

Compound	EC50
N#Cc1c(-c2ccccc2)c(-c2ccccc2)nn(CC(=O)NNC(=O)Nc2ccccc2)c1=O	> 40 µM (inactive)
Cn1c(=O)c(=O)n(C)c2cc(S(=O)(=O)N3CCN(Cc4ccccc4)CC3)ccc21	> 40 µM (inactive)
C=C1C(=O)C=C2CN(C(=O)c3ccccc3)[C@@](Cc3ccc(F)cc3)(C(=O)OC)[C@@H]12	> 40 µM (inactive)
CCOC(=O)C(=Cc1ccc(F)cc1)C(=O)OCC	> 40 µM (inactive)
O=C1NCC2=C1C(c1ccc(Br)cc1)Nc1ccccc1N2 (stereo not given)	> 40 µM (inactive)
O=C1CC(c2ccccc2)CC(O)=C1C=NCCN1CCN(C(=O)Cc2ccccc2)CC1 (stereo not given)	> 40 µM (inactive)
COc1cccc(C2CC3C(=O)C=CC2N3Cc2ccccc2)c1 (stereo not given)	> 40 µM (inactive)
CS(=O)(=O)c1nc(-c2ccco2)cc(C(F)(F)F)n1	> 40 µM (inactive)
COc1cc(/C=C/C(=O)C2C(=O)C=C(C)OC2=O)cc(OC)c1O (stereo not given)	> 40 µM (inactive)
O=C1Nc2ccccc2C12OCC1(CO2)COC2(OC1)C(=O)Nc1ccccc12 (stereo not given)	> 40 µM (inactive)
CC1=CS(=O)(=O)CC1Sc1nc2ccccc2[nH]1 (stereo not given)	> 40 µM (inactive)
Cc1cc(C2C(C#N)=C(N)Oc3n[nH]c(C)c32)c(C)s1 (stereo not given)	> 40 µM (inactive)
Fc1cccc2sc(Nc3nnc(-c4ccco4)o3)nc12	> 40 µM (inactive)
O=C1C=CC2C(c3ccc4c(c3)OCO4)CC1N2Cc1ccccc1 (stereo not given)	> 40 µM (inactive)
COc1ccc(/C=N/NC(=O)c2csc(-n3nc(C)cc3C(F)(F)F)n2)cc1	> 40 µM (inactive)
COC(=O)C1=C(C(=O)OC)C(c2ccccc2O)c2sc(=O)[nH]c2S1 (stereo not given)	> 40 µM (inactive)
CC(C)Cc1nn2c(=O)cc(O)nc2s1	> 40 µM (inactive)
O=C1c2ccccc2-c2onc3c(Oc4ccccc4)cc(O)c1c23	> 40 µM (inactive)
O=C1CC(c2ccccc2)CC(O)=C1C=NCCN1CCNCC1 (stereo not given)	> 40 µM (inactive)
O=C(Nc1ccc(Br)cn1)c1cccc(-c2cc3ccccc3oc2=O)c1	> 40 µM (inactive)
CCCCOC(=O)n1c(=O)oc2cc(S(=O)(=O)N3CCCCC3)ccc21	> 40 µM (inactive)
CCCC(=O)Nc1ccccc1Sc1ncnc2scc(-c3ccccc3)c12	> 40 µM (inactive)
COc1cc(OC)cc(-c2nc3ccccc3c(=O)n2OC(=O)c2ccccc2C)c1	> 40 µM (inactive)
O=C(NCCc1ccccn1)C(F)(F)C(F)(F)C(F)(F)C(F)(F)C(F)(F)C(F)(F)C(F)(F)C(F)F	> 40 µM (inactive)
COc1ccc2c(=O)c3c(=O)n(Cc4ccco4)c(-c4ccco4)nc3oc2c1	> 40 µM (inactive)

Compound	EC50
O=C(O)c1cccc2c1C(=O)N(C1CCCCC1)C2	> 40 µM (inactive)
O=CN(/C=C1\Sc2ccccc2C1=O)Cc1ccccc1	> 40 µM (inactive)
CCCCC1C(=O)CC[C@H]2[C@@H]1CC(=O)[C@@H]2C/C=C\CCCC(=O)O (stereo not given in full)	> 40 µM (inactive)
COc1ccc(NCc2nc3ccccc3n2CCOc2ccccc2)cc1	> 40 µM (inactive)
COc1ccc(/C=C/C(=O)C2C(=O)C=C(C)OC2=O)cc1O (stereo not given)	> 40 µM (inactive)
COc1ccc(-c2noc(CSc3nnc(-c4ccncc4)n3-c3ccc(F)cc3)n2)cc1OC	> 40 µM (inactive)
COc1ccc(CN2C(=O)/C(=C/c3ccncc3)SC2=S)cc1	> 40 µM (inactive)
CCOC(=O)c1cnc(-c2ccccc2)nc1Oc1ccc(Cl)cc1	> 40 µM (inactive)
Cn1c(=O)c2c(nc(Br)n2Cc2ccc3ccccc3c2)n(C)c1=O	> 40 µM (inactive)
CC(C)OCCCNS(=O)(=O)c1ccc2ccccc2c1	> 40 µM (inactive)
c1ccc(-c2c(-c3ccccc3)n(Cc3ccco3)c3ncnc(NCCCn4ccnc4)c23)cc1	> 40 µM (inactive)
O=c1[nH]c2ccccc2nc1Cc1ccccc1	> 40 µM (inactive)
O=C1/C(=C/c2cccnc2)CCC/C1=C\c1cccnc1	> 40 µM (inactive)
O=C(/C=C/c1ccccc1)C1C(=O)c2ccccc2C1=O	> 40 µM (inactive)
CCN1C(=O)C(=Cc2ccc(C)s2)C(=O)N(CC)C1=S	> 40 µM (inactive)
O=C1C(C2=C(O)c3ccccc3C2=O)=Nc2ccccc21	> 40 µM (inactive)
Cc1ccc(C(C2=C(O)CC(C)(C)CC2=O)C2C(=O)CC(C)(C)CC2=O)o1 (stereo not given)	> 40 µM (inactive)
CCCCC(=Nc1ccccc1OC)C1=C(O)CC(c2ccccc2)CC1=O (stereo not given)	> 40 µM (inactive)
O=C(CCC1CCCC1)c1c(O)c2ccccc2oc1=O	> 40 µM (inactive)
Cc1[nH]nc2nc3c(c(OC(=O)c4ccccc4)c12)c(=O)n(C)c(=O)n3C	> 40 µM (inactive)
CC(C)(C)C(=O)/C(=C/c1cccc([N+](=O)[O-])c1)n1cncn1	> 40 µM (inactive)
CC1(C)CC(=O)C2=C(C1)OC1=C(C(=O)CC(C)(C)C1)C2c1ccc(O)cc1O	> 40 µM (inactive)
O=C(NCc1ccco1)c1c(O)c2cccc3c2n(c1=O)CCC3	> 40 µM (inactive)
O=C(Oc1cc(=O)n2ccccc2n1)c1ccccc1	> 40 µM (inactive)
O=C1c2ccccc2C(=O)N1Cc1nc2ccccc2c(=O)n1-c1ccc(Br)cn1	> 40 µM (inactive)

Compound	EC50
O=C(N/N=C/c1cccc(F)c1)c1c(O)c2ccccc2[nH]c1=O	> 40 µM (inactive)
C=C(C)CN(CC)C(=O)COc1ccc(S(=O)(=O)Nc2ccc(OC)cc2)cc1	> 40 µM (inactive)
CN1C(=O)/C(=C/c2cccn2-c2ccc3ccccc3c2)C(=O)NC1=S	> 40 µM (inactive)
CCN1CCCC1CNC(=O)COc1cc(=O)n(C)c2ccccc12 (stereo not given)	> 40 µM (inactive)
CC[n+]1c(/C=C2\C=C(C)CC(C)(C)C2)sc2ccccc21	> 40 µM (inactive)
O=C(CCc1ccccc1)NCCCN1CCOCC1	> 40 µM (inactive)
CN=C(SCc1cc2c(cc1Cl)OCO2)c1c(O)n(C)c(=O)n(C)c1=O	> 40 µM (inactive)
CCOC(=O)C1C(c2cccs2)NC(=O)N(C)C1(O)C(F)(F)F (stereo not given)	> 40 µM (inactive)
CCCCC(c1nnnn1CC1CCCO1)N1CCN(c2nc3ccccc3s2)CC1 (stereo not given)	> 40 µM (inactive)
Cc1nc(SC(C)C)[nH]c(=O)c1Cc1ccccc1	> 40 µM (inactive)
CC(C)Cn1c(=O)c(C(=O)Nc2cnccn2)c(O)c2ccccc21	> 40 µM (inactive)
Cc1ccc(/C(O)=C2\C(=O)C(=O)N(c3cc(C)on3)C2c2cccc(Cl)c2)cc1 (stereo not given)	> 40 µM (inactive)
Cc1ccc(-c2nc3ccc(Cl)cc3n2OC(=O)N(C)C)cc1	> 40 µM (inactive)
O=[N+]([O-])c1cc2oc3c(c2c(C=NCc2ccncc2)c1O)CCCC3	> 40 µM (inactive)
CCc1ccc2nc(N3C(=O)C(O)=C(C(=O)c4ccco4)C3c3cccs3)sc2c1 (stereo not given)	> 40 µM (inactive)
Cc1cc(C)n2cc(CSc3nnc(N)s3)nc2n1	> 40 µM (inactive)
Cc1cccc(NC(=O)c2c(O)c3cccc4c3n(c2=O)CCC4)n1	> 40 µM (inactive)
CCCCn1c(=O)c2c(O)cc(=O)oc2c2ccccc21	> 40 µM (inactive)
O=C1/C(=C\c2cccnc2)CN(Cc2ccccc2)C/C1=C\c1cccnc1	> 40 µM (inactive)
COc1ccc(/C=C(\C#N)C(=O)N2CCOCC2)cc1Br	> 40 µM (inactive)
CCn1ncc(/C=N/NC(=O)c2ccc3c(c2)OCO3)c1C	> 40 µM (inactive)
CCSc1ccccc1C(=O)n1nnc2ccccc21	> 40 µM (inactive)
CCC1C/C(=C\c2cccnc2)C(=O)/C(=C/c2cccnc2)C1 (stereo not given)	> 40 µM (inactive)
COc1ccccc1N(CN1CCCC1=O)C(=O)c1c(F)cccc1F	> 40 µM (inactive)
CNC(=S)NC1CC2CCCC(C1)N2Cc1ccco1 (stereo not given)	> 40 µM (inactive)

Compound	EC50
CCc1ccc2c(c1)CCCN2C(=O)c1ccccc1C(=O)O	> 40 µM (inactive)
O=C1C(Cl)=C(Nc2ccccc2O)C(=O)N1CCc1ccccc1	> 40 µM (inactive)
CN1CCN(CC(=O)Nc2ccc(Cl)cc2Cl)CC1	> 40 µM (inactive)
Cc1ccc2[nH]c(=O)c(CN(CCO)Cc3nnnn3CCc3ccccc3)cc2c1	> 40 µM (inactive)
COc1ccc(CNC(=O)c2c(O)c3cccc4c3n(c2=O)CCC4)cc1	> 40 µM (inactive)
O=C(Oc1ccc2c(c1)OCO2)C12CC3CC(CC(C3)C1)C2	> 40 µM (inactive)
CC(C)n1c(-c2ccccc2F)n[nH]c1=S	> 40 µM (inactive)
COCCCN(C(=S)Nc1cc(Cl)cc(Cl)c1)C(C)c1ccncc1 (stereo not given)	> 40 µM (inactive)
O=S(=O)(ON(c1ccccc1)S(=O)(=O)c1ccccc1)c1ccccc1	> 40 µM (inactive)
Cc1ccc(NC(=O)C2C(=O)N(C)c3ccccc32)cc1 (stereo not given)	> 40 µM (inactive)
COC(=O)/C(=C/c1cn(C)c2ccccc12)[N+](=O)[O-]	> 40 µM (inactive)
Oc1ccc2ccccc2c1C=Nc1ccc(N2CCOCC2)cc1	> 40 µM (inactive)
CCOC(=O)C1Cc2cc3c(cc2C1=O)CC(C(=O)OCC)C3=O (stereo not given)	> 40 µM (inactive)
CCSc1nnc(NC(=O)CSc2nc(C)cc(C)n2)s1	> 40 µM (inactive)
O=c1cc(-c2c(F)c(F)c(F)c(F)c2F)oc2c(F)c(F)c(F)c(F)c12	> 40 µM (inactive)
CCCNC(=O)CCC(NS(=O)(=O)c1ccc(C)cc1)C(=O)NCCC (stereo not given)	> 40 µM (inactive)
CC(C)c1noc2ncc(C(=O)c3cc(Cl)cc(Cl)c3O)cc12	> 40 µM (inactive)
CCOc1ccc2nc(NCCNC(=O)Nc3ccccc3)c(C#N)cc2c1	> 40 µM (inactive)
Cn1c(SCC(=O)N2CCCc3ccccc32)nnc1-c1c[nH]c2ccccc12	> 40 µM (inactive)
O=C(O)CCCCCN1C(=O)/C(=C\c2ccncc2)SC1=S	> 40 µM (inactive)
O=C1c2ccccc2C(Nc2ccc3c(c2)OCCO3)N1c1ccccn1 (stereo not given)	> 40 µM (inactive)
COCCCNC(CC(=O)Nc1ccc(OC)cc1OC)C(=O)O (stereo not given)	> 40 µM (inactive)
c1ccc(-c2cc(N3CCOCC3)nc3ccccc23)cc1	> 40 µM (inactive)
O=C(Nc1cccnc1)c1c(O)c2cccc3c2n(c1=O)CC3	> 40 µM (inactive)
O=C(NCc1ccco1)c1cc(C(=O)C2CCCCC2)c[nH]1	> 40 µM (inactive)
